Results taken from patent US20240294499A1, “TARGETED PROTEIN DEGRADATION USING BIFUNCTIONAL COMPOUNDS THAT BIND UBIQUITIN LIGASE AND TARGET MCL-1 PROTEIN” (Captor Therapeutics S.A., priority 2021, published 2024).
Where a name gives a salt, the structure may show the parent alone.

Columns and labels:
[1] = target: [MCL-1]-[compound of formula (I)]-[CRBN/DDB1] complex (Homo sapiens, UniProt Q07820+Q96SW2); assay: AlphaLISA dose response ternary complex formation assay; format: binding; details: read-out: AlphaLISA dose response Average pEC50 by molecule (converted)
Chain of [MCL-1]-[compound of formula (I)]-[CRBN/DDB1] complex (Q07820 whole entry): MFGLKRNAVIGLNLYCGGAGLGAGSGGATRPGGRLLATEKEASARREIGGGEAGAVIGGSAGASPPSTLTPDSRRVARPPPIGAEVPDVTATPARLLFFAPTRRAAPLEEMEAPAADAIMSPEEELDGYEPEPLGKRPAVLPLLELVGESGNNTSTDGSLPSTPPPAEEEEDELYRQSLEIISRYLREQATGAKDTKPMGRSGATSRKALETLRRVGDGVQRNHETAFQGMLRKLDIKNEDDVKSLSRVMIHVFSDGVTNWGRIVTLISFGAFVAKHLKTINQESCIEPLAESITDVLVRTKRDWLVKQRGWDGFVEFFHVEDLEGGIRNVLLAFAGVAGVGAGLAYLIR
Chain of [MCL-1]-[compound of formula (I)]-[CRBN/DDB1] complex (Q96SW2 whole entry): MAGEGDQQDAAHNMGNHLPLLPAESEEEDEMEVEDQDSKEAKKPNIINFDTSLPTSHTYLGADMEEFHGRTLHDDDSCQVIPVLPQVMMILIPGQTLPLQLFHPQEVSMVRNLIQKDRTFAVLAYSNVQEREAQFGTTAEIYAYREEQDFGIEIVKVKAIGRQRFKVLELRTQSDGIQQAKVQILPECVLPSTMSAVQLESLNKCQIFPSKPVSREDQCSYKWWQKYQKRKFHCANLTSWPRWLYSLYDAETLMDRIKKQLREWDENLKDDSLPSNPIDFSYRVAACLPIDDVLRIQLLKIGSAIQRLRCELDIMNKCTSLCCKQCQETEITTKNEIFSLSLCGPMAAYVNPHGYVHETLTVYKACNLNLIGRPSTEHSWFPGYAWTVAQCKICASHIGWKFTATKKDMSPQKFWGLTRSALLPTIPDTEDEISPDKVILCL
Chain of [MCL-1]-[compound of formula (I)]-[CRBN/DDB1] complex (Q16531 whole entry partner): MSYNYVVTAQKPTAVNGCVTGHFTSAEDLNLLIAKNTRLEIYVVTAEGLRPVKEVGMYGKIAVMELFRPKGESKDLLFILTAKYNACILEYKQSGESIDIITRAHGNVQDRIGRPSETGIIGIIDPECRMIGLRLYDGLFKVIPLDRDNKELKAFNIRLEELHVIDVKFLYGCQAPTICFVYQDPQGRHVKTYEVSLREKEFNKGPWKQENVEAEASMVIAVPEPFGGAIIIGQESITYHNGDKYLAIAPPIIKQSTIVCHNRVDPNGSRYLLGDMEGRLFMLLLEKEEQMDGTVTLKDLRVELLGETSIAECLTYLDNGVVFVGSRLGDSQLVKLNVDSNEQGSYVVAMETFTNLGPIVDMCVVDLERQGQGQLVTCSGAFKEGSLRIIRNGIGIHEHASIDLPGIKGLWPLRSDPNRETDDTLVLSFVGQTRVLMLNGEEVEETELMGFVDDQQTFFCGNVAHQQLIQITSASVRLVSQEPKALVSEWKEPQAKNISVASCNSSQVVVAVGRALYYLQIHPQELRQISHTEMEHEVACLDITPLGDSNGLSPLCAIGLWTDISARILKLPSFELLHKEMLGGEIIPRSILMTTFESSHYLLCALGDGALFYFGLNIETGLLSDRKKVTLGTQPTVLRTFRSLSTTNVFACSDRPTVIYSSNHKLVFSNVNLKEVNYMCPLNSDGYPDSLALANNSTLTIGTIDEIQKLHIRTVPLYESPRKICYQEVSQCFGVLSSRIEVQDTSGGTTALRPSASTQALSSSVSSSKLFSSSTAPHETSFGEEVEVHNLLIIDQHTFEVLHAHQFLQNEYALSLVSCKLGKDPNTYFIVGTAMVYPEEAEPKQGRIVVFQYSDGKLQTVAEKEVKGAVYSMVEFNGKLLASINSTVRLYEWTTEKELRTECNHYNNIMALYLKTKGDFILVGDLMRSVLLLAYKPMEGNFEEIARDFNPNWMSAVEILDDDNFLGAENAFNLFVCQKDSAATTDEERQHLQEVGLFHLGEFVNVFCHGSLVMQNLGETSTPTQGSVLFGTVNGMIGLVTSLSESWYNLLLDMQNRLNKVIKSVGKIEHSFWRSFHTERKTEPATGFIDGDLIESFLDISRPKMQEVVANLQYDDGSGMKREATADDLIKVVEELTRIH
Description: The effect of the bifunctional compounds of the invention on the formation of a ternary complex composed of [MCL-1]-[compound of formula (I)]-[CRBN/DDB1] was investigated with two methods: AlphaLISA dose response assay or HTRF ternary complex assay.
Two types of protein solution were prepared: • 40 nM biotinylated hMCL-1, 40 μg/ml AlphaScreen Streptavidin-coated Donor Beads in PBS buffer with 0.1% Tween-20 and 1 mM DTT, • 200 nM 6×His-CRBN/Strep-DDB1, 40 μg/ml AlphaLISA Anti-6×His Acceptor beads in PBS buffer with 0.1% Tween-20 and 1 mM DTT.
The prepared solutions were incubated at room temperature for 45 min and then the solution containing the donor beads was mixed with the solution containing the acceptor beads.
The tested compounds were dispensed onto a white 384-well AlphaPlate 384 SW. DMSO was backfilled to all wells, resulting in a final DMSO content of 2%. Wells containing only DMSO served as background. Next, 10 μl of solution with donor and acceptor beads was added to the wells.
The plate was sealed with transparent film and shaken using a VibroTurbulator for 60 see at room temperature, level 3. The plate was then spun down shortly (10 s, 1000 rcf, room temperature) and incubated at 25° C. for 30 min.
The read-out was performed with PerkinElmer Enspire Multimode Plate Reader (method for AlphaLISA 384-well low volume, Filterset: λexc=680 nm, λem=615 nm).
The results were analyzed as follows: • 1) an average of luminescence for background signal was calculated and used as a negative control; • 2) average of the maximum measured luminescence for 233 was calculated and used as an internal positive control; • 3) raw luminescence values were normalized against positive and negative controls; • 4) concentration points above the hook point were excluded; • 5) EC50 and pEC50 values were determined.

MV-4-11 cells = assay: Cell viability assay (CellTiter-Glo), MV-4-11; format: cell-based; details: Homo sapiens, MV4-11, 24 hours incubation, 1% FBS, read-out: Average pIC50 by molecule MV-4-11 (converted)
Excerpt: The effect of various compounds of the invention on the viability of OPM-2, MV-4-11 and ARH-77 cell lines was investigated, using the CTG protocol described below.
OPM-2 and MV-4-11 cell lines are derived from multiple myeloma and acute myeloid leukaemia, respectively. Both cell lines are described in the literature as MCL-1 dependent lines, as opposed to lymphoblast-like ARH-77 cell line, which is described as independent of MCL-1 (Tron A E et al. Nat Commun. 2018; 9: 5341; Caenepeel S et al. Cancer Discov. 2018 December; 8(12):1582-1597).
Cells (OPM-2, MV-4-11 or ARH-77) were seeded on […] in a growth medium with FBS reduced to 1%. Next, compound stocks were pre-diluted in DMSO and added directly to the cells growth medium (final DMSO concentration: 0.5%). Compound concentrations used in this assay: 1/3 dilutions starting at 30 uM (9 to 12 points).
After 24 hours of incubation, cell viability was evaluated using CellTiter-Glo Luminescent Cell Viability Assay (Promega, cat #G7572). Luminescence signal was measured using a CLARIOstar Plus Multi-Mode Microplate Reader (574-590 nm).
Results were normalized to DMSO control.

Row | EC50 [1] | IC50 (MV-4-11 cells) | SMILES
1 | < 100 nM | – | Cc1nn(C)c(C)c1-c1c(Cl)ccc2c(CCCOc3cccc4ccccc34)c(C(=O)O)n(CCN3CCN(C(=O)COc4cc(C(F)(F)F)nc5c(C(=O)NC6CCC(=O)NC6=O)scc45)CC3)c12 (centres unmarked) [Compound 267, 6-chloro-1-(2-{4-[2-({7-[(2,6-dioxopiperidin-3-yl)carbamoyl]-2-(trifluoromethyl)thieno[3,4-b]pyridin-4-yl}oxy)acetyl]piperazin-1-yl}ethyl)-3-[3-(naphthalen-1-yloxy)propyl]-7-(1,3,5-trimethyl-1H-pyrazol-4-yl)-1H-indole-2-carboxylic acid]
2 | < 100 nM | – | Cc1nn(C)c(C)c1-c1c(Cl)ccc2c(CCCOc3cccc4ccccc34)c(C(=O)O)n(CCN3C[C@@H]4C[C@H]3CN4C(=O)COc3cccc4c3CN(C3CCC(=O)NC3=O)C4=O)c12 (stereo partly drawn) [Compound 209, 6-chloro-1-{2-[(1S,4S)-5-(2-{[2-(2,6-dioxopiperidin-3-yl)-1-oxo-2,3-dihydro-1H-isoindol-4-yl]oxy}acetyl)-2,5-diazabicyclo[2.2.1]heptan-2-yl]ethyl}-3-[3-(naphthalen-1-yloxy)propyl]-7-(1,3,5-trimethyl-1H-pyrazol-4-yl)-1H-indole-2-carboxylic acid]
3 | < 100 nM | – | Cc1nn(C)c(C)c1-c1c(Cl)ccc2c(CCCOc3cccc4ccccc34)c(C(=O)O)n(CCN3CC4CC(C3)N4C(=O)COc3cccc4c3C(=O)N(C3CCC(=O)NC3=O)C4=O)c12 (centres unmarked) [Compound 208, 6-chloro-1-(2-(6-(2-((2-(2,6-dioxopiperidin-3-yl)-1,3-dioxoisoindolin-4-yl)oxy)acetyl)-3,6-diazabicyclo[3.1.1]heptan-3-yl)ethyl)-3-(3-(naphthalen-1-yloxy)propyl)-7-(1,3,5-trimethyl-1H-pyrazol-4-yl)-1H-indole-2-carboxylic acid]
4 | < 1000 nM | – | Cc1nn(C)c(COc2ccc(N3CCN(S(=O)(=O)N(C)C)CC3)cc2)c1-c1cccc2c(CCCOc3cccc4ccccc34)c(C(=O)O)n(CCN3CCN(C(=O)COc4ccc5c(c4)C(=O)N(C4CCC(=O)NC4=O)C5=O)CC3)c12 (centres unmarked) [Compound 248, 7-(5-((4-(4-(N,N-dimethylsulfamoyl)piperazin-1-yl)phenoxy)methyl)-1,3-dimethyl-1H-pyrazol-4-yl)-1-(2-(4-(2-((2-(2,6-dioxopiperidin-3-yl)-1,3-dioxoisoindolin-5-yl)oxy)acetyl)piperazin-1-yl)ethyl)-3-(3-(naphthalen-1-yloxy)propyl)-1H-indole-2-carboxylic acid]
5 | < 10 nM | – | Cc1nn(C)c(C)c1-c1c(Cl)ccc2c(CCCOc3cccc4c3CCCC4)c(C(=O)O)n(CCN3CCN(C(=O)COc4cccc5c4CN(C4CCC(=O)NC4=O)C5=O)CC3)c12 (centres unmarked) [Compound 219, 6-chloro-1-(2-(4-(2-((2-(2,6-dioxopiperidin-3-yl)-1-oxoisoindolin-4-yl)oxy)acetyl)piperazin-1-yl)ethyl)-3-(3-((5,6,7,8-tetrahydronaphthalen-1-yl)oxy)propyl)-7-(1,3,5-trimethyl-1H-pyrazol-4-yl)-1H-indole-2-carboxylic acid]
6 | < 1000 nM | – | Cc1cc(OCCCc2c(C(=O)O)n(CCN3CCN(C(=O)CNc4cccc5c4C(=O)N(C4CCC(=O)NC4=O)C5=O)CC3)c3c(-c4c(C)nn(C)c4C)cccc23)cc(C)c1Cl (centres unmarked) [Compound 233, 3-(3-(4-chloro-3,5-dimethylphenoxy)propyl)-1-(2-(4-((2-(2,6-dioxopiperidin-3-yl)-1,3-dioxoisoindolin-4-yl)glycyl)piperazin-1-yl)ethyl)-7-(1,3,5-trimethyl-1H-pyrazol-4-yl)-1H-indole-2-carboxylic acid]
7 | – | ≤ 1000 nM | Cc1nn(C)c(C)c1-c1c(Cl)ccc2c(CCCOc3cccc4ccccc34)c(C(=O)O)n(CCN3CCN(C(=O)CCc4nc5c(C(=O)NC6CCC(=O)NC6=O)cccc5[nH]4)CC3)c12 (centres unmarked) [Compound 265]
8 | < 1000 nM | – | Cc1nn(C)c(COc2ccc(N3CCN(S(=O)(=O)N(C)C)CC3)cc2)c1-c1cccc2c(CCCOc3cccc4ccccc34)c(C(=O)O)n(CCN3CCN(CCCOCCOCCNc4cccc5c4C(=O)N(C4CCC(=O)NC4=O)C5=O)CC3)c12 (centres unmarked) [Compound 247, 7-(5-((4-(4-(N,N-dimethylsulfamoyl)piperazin-1-yl)phenoxy)methyl)-1,3-dimethyl-1H-pyrazol-4-yl)-1-(2-(4-(3-(2-(2-((2-(2,6-dioxopiperidin-3-yl)-1,3-dioxoisoindolin-4-yl)amino)ethoxy)ethoxy)propyl)piperazin-1-yl)ethyl)-3-(3-(naphthalen-1-yloxy)propyl)-1H-indole-2-carboxylic acid trifluoroacetate]
9 | < 1000 nM | – | Cc1nn(C)c(C)c1-c1c(Cl)ccc2c(CCCOc3cccc4c3C3CCC4C3)c(C(=O)O)n(CCN3CCN(C(=O)COc4cccc5c4CN(C4CCC(=O)NC4=O)C5=O)CC3)c12 (centres unmarked) [Compound 352, 6-Chloro-1-(2-(4-(2-((2-(2,6-dioxopiperidin-3-yl)-1-oxoisoindolin-4-yl)oxy)acetyl)piperazin-1-yl)ethyl)-3-(3-((1,2,3,4-tetrahydro-1,4-methanonaphthalen-5-yl)oxy)propyl)-7-(1,3,5-trimethyl-1H-pyrazol-4-yl)-1H-indole-2-carboxylic acid]
10 | < 100 nM | – | Cc1c(-c2cccc3c(CCCOc4cccc5ccccc45)c(C(=O)O)n(CCN4CCN(C(=O)COc5cccc6c5C(=O)N(C5CCC(=O)NC5=O)C6=O)CC4)c23)c(COc2ccc(Br)c(C=O)c2)nn1C (centres unmarked) [Compound 251, 7-(3-((4-Bromo-3-formylphenoxy)methyl)-1,5-dimethyl-1H-pyrazol-4-yl)-1-(2-(4-(2-((2-(2,6-dioxopiperidin-3-yl)-1,3-dioxoisoindolin-4-yl)oxy)acetyl)piperazin-1-yl)ethyl)-3-(3-(naphthalen-1-yloxy)propyl)-1H-indole-2-carboxylic acid]
11 | < 1000 nM | – | Cc1nn(CCCOCCOCCNc2cccc3c2C(=O)N(C2CCC(=O)NC2=O)C3=O)c(C)c1-c1cccc2c(CCCOc3cccc4ccccc34)c(C(=O)O)n(CCN3CCOCC3)c12 (centres unmarked) [Compound 232, 7-(1-(3-(2-(2-((2-(2,6-dioxopiperidin-3-yl)-1,3-dioxoisoindolin-4-yl)amino)ethoxy)ethoxy)propyl)-3,5-dimethyl-1H-pyrazol-4-yl)-1-(2-morpholinoethyl)-3-(3-(naphthalen-1-yloxy)propyl)-1H-indole-2-carboxylic acid]
12 | < 1000 nM | – | Cc1nn(C)c(C)c1-c1c(Cl)ccc2c(CCCN(C)c3cccc4ccccc34)c(C(=O)O)n(CCN3CCN(C(=O)COc4cccc5c4CN(C4CCC(=O)NC4=O)C5=O)CC3)c12 (centres unmarked) [Compound 353, 6-Chloro-1-(2-(4-(2-((2-(2,6-dioxopiperidin-3-yl)-1-oxoisoindolin-4-yl)oxy)acetyl)piperazin-1-yl)ethyl)-3-(3-(methyl(naphthalen-1-yl)amino)propyl)-7-(1,3,5-trimethyl-1H-pyrazol-4-yl)-1H-indole-2-carboxylic acid]
13 | < 1000 nM | – | Cc1cc(OCCCc2c(C(=O)O)n(C)c3c(-c4c(C)nn(CCCOCCOCCNc5cccc6c5C(=O)N(C5CCC(=O)NC5=O)C6=O)c4C)cccc23)cc(C)c1Cl (centres unmarked) [Compound 227, 3-(3-(4-chloro-3,5-dimethylphenoxy)propyl)-7-(1-(3-(2-(2-((2-(2,6-dioxopiperidin-3-yl)-1,3-dioxoisoindolin-4-yl)amino)ethoxy)ethoxy)propyl)-3,5-dimethyl-1H-pyrazol-4-yl)-1-methyl-1H-indole-2-carboxylic acid]
14 | – | ≤ 316 nM | Cc1nn(C)c(C)c1-c1c(Cl)ccc2c(CCCOc3cccc4ccccc34)c(C(=O)O)n(CCN3CCN(C(=O)COc4cccc5c4C(=O)N(C4CCC(=O)N(C)C4=O)C5=O)CC3)c12 (centres unmarked) [Compound 205, 6-chloro-1-(2-(4-(2-((2-(1-methyl-2,6-dioxopiperidin-3-yl)-1,3-dioxoisoindolin-4-yl)oxy)acetyl)piperazin-1-yl)ethyl)-3-(3-(naphthalen-1-yloxy)propyl)-7-(1,3,5-trimethyl-1H-pyrazol-4-yl)-1H-indole-2-carboxylic acid]
